The values below come from US8524765B2, “Compounds that modulate intracellular calcium” (Calcimedica, Inc., priority 2007, dated 2013).

In general, IC50 refers to the concentration at which inhibition is half-maximal. The % Inhibition is how much of the control response was suppressed. In general, inhibition refers to the relative decrease from the control value, in per cent. Broadly, the pIC50 is the IC50 on a negative log10 scale, so that one unit is a factor of ten.

pIC50: −log10 of the molar value. “Also recorded” adds a separate entry of the source. Read-outs that look alike come from different tables or passages of the source.

In assay [1] the test system is store-operated calcium entry in RBL-2H3 cells. Briefly: Fluorescence (FLUO-4/FLIPR384) store-operated calcium entry screening assay. As to conditions: for IC50: Up slope parameter, RBL-2H3 cells; for % Inhibition at 10 μM / inhibition at 10 µM: cell line not stated; for inhibition at 10 µM: RBL-2H3. Type of assay: cell-based, rat. How it is done: Fluorescence-based assays were used for screening the compounds described herein, such as compounds of Formula (I) and Formula (II), which modulate intracellular calcium.
RBL-2H3 cells plated in 384-well plates were loaded for 45 min with FLUO-4-AM (2 μM final concentration) in HBSS. Cells were washed and placed in a nominally Ca^2+- and Mg^2+-free Hanks solution. One minute later, a test agent or vehicle was added. After a 15 minute incubation period, 1 μM thapsigargin (Tg) was added to inhibit the ER Ca^2+ pump and discharge intracellular Ca^2+ stores. Fifteen minutes after addition of Tg, store-operated calcium entry was initiated by adding external Ca^2+ to a final concentration of 1.8 mM and the cells monitored for a further 10-15 minutes. Calcium levels were monitored throughout the assay using a FLIPR^384 (Molecular Devices fluorimetric imaging plate reader for high throughput screening).
A similar screening assay procedure was used with HEK293 and RBL-2H3 cells.
The kinetic data from the FLIPR^384 were analyzed and then stored in a relational database (ActivityBase; IDBS). Ten quantitative parameters were calculated that define various aspects of the store-operated calcium entry response. These parameters are as follows:
Up slope: linear regression of the increase in RFU from 2 to 30 sec after addition of Ca^2+.
Combinations of these parameters were used to characterize the compounds of Formula (I). Compounds were retested under identical conditions to confirm their activity. Compounds with confirmed activity were then analyzed for concentration-dependent effects, and subsequently, those compounds displaying concentration-dependent effects were categorized as compounds that modulate intracellular calcium.

The target of assay [2] is T1, hOrail/hSTIM1 (Homo sapiens, UniProt Q96D31).
T1 construct: expressed in transfected cells
Briefly: Recombinant hOrail/hSTIM1-dependent Ca2+ entry in stable cells. The assay is classed as cell-based. As to conditions: FIG. 14.

The target in assay [3] is T1, hOrail/hSTIM1. The assay can be described thus: Monster ICRAC in cells stably overexpressing hOrail/hSTIM1. Type of assay: cell-based. The following applies: FIG. 15.
Assay [4] deals with HEK[STIM1] cells. Briefly: STIM1-dependent Ca2+ entry in STIM1-overexpressing cells. Type of assay: cell-based, human. How it is done:
(§1) To test whether the Ca^2+ entry pathway activated by STIM1 overexpression is pharmacologically similar to endogenous SOCE, HEK[STIM1] cells were pre-incubated with increasing doses of 2-APB and STIM1-dependent Ca^2+ entry was measured.

Assay [5] relates to HEK-Zeo control cells. The following applies: read-out: IC50 for inhibition of calcium entry, HEK-Zeo control cells; thapsigargin-mediated store depletion, readdition of external calcium. The protocol:
as §1

T1 sequence (Q96D31 whole entry): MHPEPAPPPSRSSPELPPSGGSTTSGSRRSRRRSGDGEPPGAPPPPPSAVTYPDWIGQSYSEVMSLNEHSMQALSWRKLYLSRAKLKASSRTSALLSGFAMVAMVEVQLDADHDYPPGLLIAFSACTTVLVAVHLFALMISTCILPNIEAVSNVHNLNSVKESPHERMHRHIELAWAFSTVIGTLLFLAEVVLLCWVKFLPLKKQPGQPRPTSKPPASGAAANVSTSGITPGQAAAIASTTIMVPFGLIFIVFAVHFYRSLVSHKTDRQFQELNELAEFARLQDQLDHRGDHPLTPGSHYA
T1 sequence (Q13586 23-685 partner): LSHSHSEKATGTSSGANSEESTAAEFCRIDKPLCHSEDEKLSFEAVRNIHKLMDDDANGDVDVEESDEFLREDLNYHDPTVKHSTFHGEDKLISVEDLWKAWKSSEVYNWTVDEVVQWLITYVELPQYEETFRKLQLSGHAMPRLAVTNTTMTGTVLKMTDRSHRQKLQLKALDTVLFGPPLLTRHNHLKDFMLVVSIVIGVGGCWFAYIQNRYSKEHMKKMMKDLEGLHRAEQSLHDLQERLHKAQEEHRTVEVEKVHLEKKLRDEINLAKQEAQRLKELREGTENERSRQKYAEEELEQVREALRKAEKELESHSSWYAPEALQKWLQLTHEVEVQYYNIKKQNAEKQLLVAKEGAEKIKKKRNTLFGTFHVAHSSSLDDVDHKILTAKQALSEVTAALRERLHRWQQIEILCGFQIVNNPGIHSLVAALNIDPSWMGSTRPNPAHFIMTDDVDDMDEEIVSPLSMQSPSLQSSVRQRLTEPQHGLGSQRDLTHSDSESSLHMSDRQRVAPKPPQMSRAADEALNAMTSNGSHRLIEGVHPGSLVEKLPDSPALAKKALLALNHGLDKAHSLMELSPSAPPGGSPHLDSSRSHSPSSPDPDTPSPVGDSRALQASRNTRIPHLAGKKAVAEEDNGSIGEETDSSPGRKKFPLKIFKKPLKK

Turning to `Cc1ccc(-c2csc(NC(=O)c3ccc(Br)cc3)c2C(=O)O)cc1` [Compound 16, 2-(4-bromobenzamido)-4-(4-methylphenyl)thiophene-3-carboxylic acid], the IC50 in assay [1] (Rattus norvegicus) was 0.6 µM. As for `O=C(Nc1scc(-c2ccc(Cl)cc2)c1C(=O)O)c1cccc(F)c1` [Compound 25, 2-(3-fluorobenzamido)-4-(4-chlorophenyl)thiophene-3-carboxylic acid], in assay [1] (Rattus norvegicus), the IC50 is 1.3 µM. With `O=C(Nc1scc(-c2ccc(Br)cc2)c1C(=O)O)c1cc2ccccc2s1` [Compound 14, 2-(benzothien-2-ylamido)-4-(4-bromophenyl)thiophene-3-carboxylic acid], in assay [1], the “% Inhibition at 10 μM” value is reported as >70% and the IC50 turned out to be 2.4 µM. The like results for `O=C(Nc1scc(-c2ccc(Cl)cc2Cl)c1C(=O)O)c1cc2ccccc2s1` [Compound 45, 2-(benzothien-2-ylamido)-4-(2,4-dichlorophenyl)thiophene-3-carboxylic acid] were, in that order, >70% and 2.4 µM. For the compound `O=C(Nc1scc(-c2ccc(Cl)cc2)c1C(=O)O)c1ccc(F)cc1` [Compound 2, 2-(4-fluorobenzamido)-4-(4-chlorophenyl)thiophene-3-carboxylic acid], in assay [2], the “effect on recombinant hOrail/hSTIM1-dependent Ca2+ entry” value is recorded as “inhibition”. For the same compound, the IC50 in assay [1] (Rattus norvegicus) amounted to 2.3 µM. The “effect on Monster ICRAC” value in assay [3] is reported as “inhibit”. Consider `Cc1cccc(C(=O)Nc2scc(-c3ccc(Br)cc3)c2C(=O)O)c1` [Compound 15, 2-(3-methylbenzamido)-4-(4-bromophenyl)thiophene-3-carboxylic acid], for which the IC50 in assay [1] (Rattus norvegicus) turned out to be 2.6 µM.

As to `O=C(Nc1scc(-c2ccc(Br)cc2)c1C(=O)O)c1cccc(F)c1` [Compound 11, 2-(3-fluorobenzamido)-4-(4-bromophenyl)thiophene-3-carboxylic acid], the IC50 in assay [1] (Rattus norvegicus) amounted to 0.8 µM. Turning to `O=C(Nc1scc(-c2ccc(Cl)cc2Cl)c1C(=O)O)c1cccc(F)c1` [Compound 26, 2-(3-fluorobenzamido)-4-(2,4-dichlorophenyl)thiophene-3-carboxylic acid], in assay [1] (Rattus norvegicus), the inhibition at 10 µM is > 70% and the IC50 was 2.1 µM.

Regarding `O=C(Nc1scc(-c2ccc(Br)cc2)c1C(=O)O)c1ccc(Br)cc1` [Compound 18, 2-(4-bromobenzamido)-4-(4-bromophenyl)thiophene-3-carboxylic acid], in assay [1] (Rattus norvegicus), the inhibition at 10 µM was > 70% and the IC50 was 1.3 µM.

`O=C(Nc1scc(-c2ccc(Cl)c(Cl)c2)c1C(=O)O)c1ccc(Cl)cc1` [Compound 37, 2-(4-chlorobenzamido)-4-(3,4-dichlorophenyl)thiophene-3-carboxylic acid]: in assay [1] (Rattus norvegicus), the inhibition at 10 µM was < 70% and the IC50 turned out to be 3 µM. The matching figures for `O=C(Nc1scc(-c2ccc(Cl)cc2)c1C(=O)O)c1ccc(Br)cc1` [Compound 17, 2-(4-bromobenzamido)-4-(4-chlorophenyl)thiophene-3-carboxylic acid]: > 70% and 1 µM.

For the compound `Cc1ccc(-c2csc(NC(=O)c3ccc(Cl)cc3)c2C(=O)O)cc1` [Compound 34, 2-(4-chlorobenzamido)-4-(4-methylphenyl)thiophene-3-carboxylic acid], in assay [1] (Rattus norvegicus), the IC50 turned out to be 1 µM. Turning to `Cc1ccc(-c2csc(NC(=O)c3cccc(C)c3)c2C(=O)O)cc1` [Compound 51, 2-(3-methylbenzamido)-4-(4-methylphenyl)thiophene-3-carboxylic acid], the IC50 in assay [1] (Rattus norvegicus) was found to be 3 µM. As to `Cc1ccc(-c2csc(NC(=O)c3ccc(Cl)cc3)c2C(=O)O)cc1C` [Compound 38, 2-(4-chlorobenzamido)-4-(3,4-dimethylphenyl)thiophene-3-carboxylic acid], in assay [1] (Rattus norvegicus), the inhibition at 10 µM is < 70% and the IC50 is 3.8 µM. For the compound `Cc1ccc(-c2csc(NC(=O)c3cc4ccccc4s3)c2C(=O)O)cc1` [Compound 44, 2-(benzothien-2-ylamido)-4-(4-methylphenyl)thiophene-3-carboxylic acid], in assay [1], the “% Inhibition at 10 μM” value is <70% and the IC50 came out at 1.3 µM.

As for `O=C(Nc1scc(-c2ccc(F)cc2)c1C(=O)O)c1ccc(Cl)cc1` [Compound 36, 2-(4-chlorobenzamido)-4-(4-fluorophenyl)thiophene-3-carboxylic acid], the IC50 in assay [1] (Rattus norvegicus) was determined as 2.4 µM. For `O=C(Nc1scc(-c2ccc(C(F)(F)F)cc2)c1C(=O)O)c1ccc(F)cc1` [Compound 4, 2-(4-fluorobenzamido)-4-(4-trifluoromethylphenyl)thiophene-3-carboxylic acid], in assay [1] (Rattus norvegicus), the inhibition at 10 µM was > 70%. Regarding `O=C(Nc1scc(-c2ccc(Br)cc2)c1C(=O)O)c1ccc(Cl)cc1` [Compound 12, 2-(4-chlorobenzamido)-4-(4-bromophenyl)thiophene-3-carboxylic acid], the IC50 in assay [1] (Rattus norvegicus) amounted to 1.2 µM. Regarding `NCCOB(c1ccccc1)c1ccccc1` [Compound 2-APB, 2-aminoethoxydiphenyl borate], the “effect on STIM1-dependent Ca2+ entry” value in assay [4] (HEK293 overexpressing STIM1, no Tg store depletion, FIG. 13) is “biphasic effect; also recorded: both enhances (at low concentrations) and inhibits (at high concentrations)”. Further, the pIC50 in assay [4] (HEK[STIM1] cells, entry induced by pretreatment in Ca2+-free buffer, read-out: IC50 for inhibition of Ca2+ entry in the absence of Tg-dependent store depletion) is 4.97; in assay [4] (thapsigargin-mediated store depletion, readdition of external calcium, read-out: IC50 for inhibition of calcium entry, HEK[STIM1] cells), 4.98; in assay [5], 4.93.

Turning to `Cc1ccc(-c2csc(NC(=O)c3ccc(Br)cc3)c2C(=O)O)cc1C` [Compound 21, 2-(4-bromobenzamido)-4-(3,4-dimethylphenyl)thiophene-3-carboxylic acid], in assay [1] (Rattus norvegicus), the inhibition at 10 µM is > 70% and the IC50 amounted to 4.6 µM. Take `O=C(Nc1scc(-c2cccc(Cl)c2)c1C(=O)O)c1cc2ccccc2s1` [Compound 46, 2-(benzothien-2-ylamido)-4-(3-chlorophenyl)thiophene-3-carboxylic acid]: in assay [1], the “% Inhibition at 10 μM” value was >70% and the IC50 stood at 10.7 µM.

Turning to `O=C(Nc1scc(-c2ccc(Cl)cc2)c1C(=O)O)c1cc2ccccc2s1` [Compound 43, 2-(benzothien-2-ylamido)-4-(4-chlorophenyl)thiophene-3-carboxylic acid], in assay [1], the “% Inhibition at 10 μM” value was >70% and the IC50 came out at 1 µM.

For the compound `O=C(Nc1scc(-c2ccc(Cl)cc2)c1C(=O)O)c1ccc(Cl)cc1` [Compound 33, 2-(4-chlorobenzamido)-4-(4-chlorophenyl)thiophene-3-carboxylic acid], the concentration for half-maximal inhibition (IC50) in assay [1] (Rattus norvegicus) amounted to 1 µM. On to `O=C(Nc1scc(-c2cccc(Cl)c2)c1C(=O)O)c1ccc(Br)cc1` [Compound 20, 2-(4-bromobenzamido)-4-(3-chlorophenyl)thiophene-3-carboxylic acid], for which, in assay [1] (Rattus norvegicus), the inhibition at 10 µM was < 70% and the IC50 is 4 µM. The like results for `O=C(Nc1scc(-c2cc(Cl)cc(Cl)c2)c1C(=O)O)c1ccc(Br)cc1` [Compound 19, 2-(4-bromobenzamido)-4-(3,5-dichlorophenyl)thiophene-3-carboxylic acid] were, in that order, > 70% and 1.6 µM.

With `O=C(Nc1scc(-c2ccc(Cl)c(Cl)c2)c1C(=O)O)c1ccc(F)cc1` [Compound 3, 2-(4-fluorobenzamido)-4-(3,4-dichlorophenyl)thiophene-3-carboxylic acid], in assay [1] (Rattus norvegicus), the inhibition at 10 µM is > 70% and the IC50 was determined as 3.3 µM.

Regarding `Cc1cccc(C(=O)Nc2scc(-c3ccc(Cl)cc3)c2C(=O)O)c1` [Compound 50, 2-(3-methylbenzamido)-4-(4-chlorophenyl)thiophene-3-carboxylic acid], in assay [1] (Rattus norvegicus), the IC50 worked out at 1.2 µM.

Consider `O=C(Nc1scc(-c2ccc(Cl)cc2Cl)c1C(=O)O)c1ccc(Cl)cc1` [Compound 35, 2-(4-chlorobenzamido)-4-(2,4-dichlorophenyl)thiophene-3-carboxylic acid], for which, in assay [1] (Rattus norvegicus), the inhibition at 10 µM is > 70% and the IC50 worked out at 1.6 µM.
